Test system: 855422-203-R-J1-PDC complex spheroids, viability
Assay: Anticancer human tumor 855422-203-R-J1-PDC patient-derived bladder carcinoma cell line growth inhibition [CLK]
Settings: for IC50: curve of first compound; for viability, T/C: stronger effect = lower value
How it was run: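 Patient-derived tumor cells grown as complex spheroids with HUVEC endothelial cells and mesenchymal stem cells, treated with drug combinations. Concentrations descend in half-log steps from near clinical Cmax, or from 10 microM if Cmax unknown.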

[1] = second compound 0.0316 µM, first compound 0.0316 µM
[2] = second compound 0.0316 µM, first compound 0.1 µM
[3] = second compound 0.0316 µM, first compound 0.316 µM
[4] = second compound 0.0316 µM, first compound 1 µM
[5] = second compound 0.1 µM, first compound 0.0316 µM
[6] = second compound 0.1 µM, first compound 0.1 µM
[7] = second compound 0.1 µM, first compound 0.316 µM
[8] = second compound 0.1 µM, first compound 1 µM
[9] = second compound 0.316 µM, first compound 0.0316 µM
[10] = second compound 0.316 µM, first compound 0.1 µM
[11] = second compound 0.316 µM, first compound 0.316 µM
[12] = second compound 0.316 µM, first compound 1 µM
[13] = second compound 1 µM, first compound 0.0316 µM
[14] = second compound 1 µM, first compound 0.1 µM
[15] = second compound 1 µM, first compound 0.316 µM
[16] = second compound 1 µM, first compound 1 µM
[17] = second compound 3.16 µM, first compound 0.0316 µM
[18] = second compound 3.16 µM, first compound 0.1 µM
[19] = second compound 3.16 µM, first compound 0.316 µM
[20] = second compound 3.16 µM, first compound 1 µM
[21] = second compound 10 µM, first compound 0.0316 µM
[22] = second compound 10 µM, first compound 0.1 µM
[23] = second compound 10 µM, first compound 0.316 µM
[24] = second compound 10 µM, first compound 1 µM
[25] = second compound 0.0316 µM, first compound 0.00316 µM
[26] = second compound 0.0316 µM, first compound 0.01 µM
[27] = second compound 0.1 µM, first compound 0.00316 µM
[28] = second compound 0.1 µM, first compound 0.01 µM
[29] = second compound 0.316 µM, first compound 0.00316 µM
[30] = second compound 0.316 µM, first compound 0.01 µM
[31] = second compound 1 µM, first compound 0.00316 µM
[32] = second compound 1 µM, first compound 0.01 µM
[33] = second compound 3.16 µM, first compound 0.00316 µM
[34] = second compound 3.16 µM, first compound 0.01 µM
[35] = second compound 10 µM, first compound 0.00316 µM
[36] = second compound 10 µM, first compound 0.01 µM
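Also: spheroids exposed to drugs for seven days before readout.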
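For viability, T/C in this document: 100% = DMSO vehicle control wells.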

Molecule `CC(Nc1ccc2c(c1)OCCn1cc(N3C(=O)OCC3C(F)F)nc1-2)C(N)=O` (stereo unspecified) + CNC(=O)c1ccc(Nc2nc(OC3CCCC3)c3c(-c4ccc5nc(C)oc5c4)c[nH]c3n2)c(OC)c1 has an IC50 (second compound 0.0316 µM) of 161 nM, an IC50 (second compound 0.1 µM) of 181 nM and an IC50 (second compound 0.316 µM) of less than 31.6 nM. The IC50 (second compound 1 µM) was less than 31.6 nM, the IC50 (second compound 3.16 µM) was less than 31.6 nM and the IC50 (second compound 10 µM) was less than 31.6 nM. It also gave a viability, T/C [1] of 80.5%, a viability, T/C [2] of 59.6% and a viability, T/C [3] of 36.1%. It also gave a viability, T/C [4] of 26.3%, a viability, T/C (second compound 0.0316 µM, first compound 3.16 µM) of 19.7% and a viability, T/C (second compound 0.0316 µM, first compound 10 µM) of 11.1%. The viability, T/C [5] was 61.9%, the viability, T/C [6] was 58.6% and the viability, T/C [7] was 42.6%. It also gave a viability, T/C [8] of 27.5%, a viability, T/C (second compound 0.1 µM, first compound 3.16 µM) of 19.7% and a viability, T/C (second compound 0.1 µM, first compound 10 µM) of 12%. The viability, T/C [9] was 15.8%, the viability, T/C [10] was 15.3% and the viability, T/C [11] was 13.8%. The viability, T/C [12] was 13.4%, the viability, T/C (second compound 0.316 µM, first compound 3.16 µM) was 9.9% and the viability, T/C (second compound 0.316 µM, first compound 10 µM) was 6.79%. The viability, T/C [13] was 16.9%, the viability, T/C [14] was 16.6% and the viability, T/C [15] was 11.4%. The viability, T/C [16] was 9.1%, the viability, T/C (second compound 1 µM, first compound 3.16 µM) was 8.21% and the viability, T/C (second compound 1 µM, first compound 10 µM) was 4.44%. The viability, T/C [17] was 21.2%, the viability, T/C [18] was 15.8% and the viability, T/C [19] was 9.09%. The viability, T/C [20] was 9.68%, the viability, T/C (second compound 3.16 µM, first compound 3.16 µM) was 8.52% and the viability, T/C (second compound 3.16 µM, first compound 10 µM) was 5.74%. For the same molecule, the viability, T/C [21] was 15.8%, the viability, T/C [22] was 12.1% and the viability, T/C [23] was 10.3%. It also gave a viability, T/C [24] of 10.3%, a viability, T/C (second compound 10 µM, first compound 3.16 µM) of 7.09% and a viability, T/C (second compound 10 µM, first compound 10 µM) of 3.99%.

`CCN1CCN(Cc2ccc(Nc3ncc(F)c(-c4cc(F)c5nc(C)n(C(C)C)c5c4)n3)nc2)CC1` + CNC(=O)c1ccc(Nc2nc(OC3CCCC3)c3c(-c4ccc5nc(C)oc5c4)c[nH]c3n2)c(OC)c1 gave an IC50 (second compound 0.0316 µM) greater than 1000 nM, an IC50 (second compound 0.1 µM) of 6.4 nM and an IC50 (second compound 0.316 µM) of less than 3.16 nM. For the same molecule, the IC50 (second compound 1 µM) was less than 3.16 nM, the IC50 (second compound 3.16 µM) was less than 3.16 nM and the IC50 (second compound 10 µM) was less than 3.16 nM. For the same molecule, the viability, T/C [25] was 88%, the viability, T/C [26] was 90.2% and the viability, T/C [1] was 74.8%. For the same molecule, the viability, T/C [2] was 56.8%, the viability, T/C [3] was 56.4% and the viability, T/C [4] was 46.2%. For the same molecule, the viability, T/C [27] was 59.3%, the viability, T/C [28] was 48% and the viability, T/C [5] was 31.6%. For the same molecule, the viability, T/C [6] was 33.7%, the viability, T/C [7] was 31.8% and the viability, T/C [8] was 37.3%. The viability, T/C [29] was 23.3%, the viability, T/C [30] was 27.7% and the viability, T/C [9] was 25.9%. It also gave a viability, T/C [10] of 20.9%, a viability, T/C [11] of 28.7% and a viability, T/C [12] of 30.9%. For the same molecule, the viability, T/C [31] was 19.8%, the viability, T/C [32] was 23.9% and the viability, T/C [13] was 18%. The viability, T/C [14] was 22.9%, the viability, T/C [15] was 22.2% and the viability, T/C [16] was 23.9%. The viability, T/C [33] was 18.2%, the viability, T/C [34] was 23.4% and the viability, T/C [17] was 19.8%. The viability, T/C [18] was 18.6%, the viability, T/C [19] was 26.9% and the viability, T/C [20] was 22.7%. It also gave a viability, T/C [35] of 18.2%, a viability, T/C [36] of 22.1% and a viability, T/C [21] of 22.3%. For the same molecule, the viability, T/C [22] was 24%, the viability, T/C [23] was 18.5% and the viability, T/C [24] was 20%.

Work on `COc1c(OCCCN2CCOCC2)ccc2c3n(c(=NC(=O)c4cnc(N)nc4)nc12)CCN3` + CNC(=O)c1ccc(Nc2nc(OC3CCCC3)c3c(-c4ccc5nc(C)oc5c4)c[nH]c3n2)c(OC)c1 yielded an IC50 (second compound 0.0316 µM) of 14.2 nM, an IC50 (second compound 0.1 µM) of 6.2 nM and an IC50 (second compound 0.316 µM) of less than 3.16 nM. The IC50 (second compound 1 µM) was less than 3.16 nM, the IC50 (second compound 3.16 µM) was less than 3.16 nM and the IC50 (second compound 10 µM) was less than 3.16 nM. For the same molecule, the viability, T/C [25] was 84.2%, the viability, T/C [26] was 58.8% and the viability, T/C [1] was 29.8%. For the same molecule, the viability, T/C [2] was 10.1%, the viability, T/C [3] was 4.15% and the viability, T/C [4] was 1.68%. For the same molecule, the viability, T/C [27] was 52%, the viability, T/C [28] was 49.5% and the viability, T/C [5] was 25.3%. It also gave a viability, T/C [6] of 9.48%, a viability, T/C [7] of 3.91% and a viability, T/C [8] of 2.07%. For the same molecule, the viability, T/C [29] was 17.3%, the viability, T/C [30] was 18.5% and the viability, T/C [9] was 8.61%. For the same molecule, the viability, T/C [10] was 7.71%, the viability, T/C [11] was 3.19% and the viability, T/C [12] was 1.46%. For the same molecule, the viability, T/C [31] was 19.4%, the viability, T/C [32] was 16.5% and the viability, T/C [13] was 7.5%. The viability, T/C [14] was 3.51%, the viability, T/C [15] was 7.67% and the viability, T/C [16] was 1.54%. For the same molecule, the viability, T/C [33] was 18.8%, the viability, T/C [34] was 14.2% and the viability, T/C [17] was 10.1%. It also gave a viability, T/C [18] of 7.42%, a viability, T/C [19] of 2.07% and a viability, T/C [20] of 1.38%. The viability, T/C [35] was 16.3%, the viability, T/C [36] was 11.2% and the viability, T/C [21] was 6.12%. For the same molecule, the viability, T/C [22] was 4.26%, the viability, T/C [23] was 3.27% and the viability, T/C [24] was 1.62%.
